These compounds were tested against Recombinant human JAK1 catalytic domain (Homo sapiens (Human), UniProt P23458) (assay: JAK1 kinase assay (Z'-LYTE Tyr 6 Peptide)). Conditions: JAK1 kinase assay, 0.3 uM concentration; read-out: inhibition percentage (IR %).
Assay type: biochemical
Protocol: JAK1/2/3 kinase assay are performed in vitro using Kit-Tyr 6 Peptide (Invitrogen, Cat. No. PV4122). TYK2 kinase assay are performed in vitro using Z′-LYTE™ Kinase Assay Kit-Tyr 3 Peptide (Invitrogen, Cat. No. PV3192). […] All compounds are initially tested at 8 different concentrations (1 μM down to 0.0003 μM) using a 1:3 serial dilution scheme.

Recombinant human JAK1 catalytic domain, sequence (P23458 875-1153): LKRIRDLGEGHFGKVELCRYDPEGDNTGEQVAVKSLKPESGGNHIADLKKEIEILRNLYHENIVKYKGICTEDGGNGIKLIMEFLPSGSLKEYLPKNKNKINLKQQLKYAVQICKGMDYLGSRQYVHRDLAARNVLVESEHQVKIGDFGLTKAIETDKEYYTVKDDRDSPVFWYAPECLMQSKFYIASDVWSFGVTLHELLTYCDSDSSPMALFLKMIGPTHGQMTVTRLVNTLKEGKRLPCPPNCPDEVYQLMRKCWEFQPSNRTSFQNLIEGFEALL

Row | Structure (SMILES) | inhibition at 0.3 µM
1 | N#Cc1ccc(N[C@@H]2CCN(c3ncnc4[nH]ccc34)C2)nc1 [Compound 81] | 50 to 100%
2 | C[C@H](O)CNS(=O)(=O)c1ccc(N(C)[C@@H]2CCN(c3ncnc4[nH]ccc34)C2)nc1 [Compound 245] | 50 to 100%
3 | CN(c1ncc([N+](=O)[O-])cc1Cl)[C@@H]1CCN(c2ncnc3[nH]ccc23)C1 [Compound 74] | 50 to 100%
4 | CN(c1ccc(C#N)cc1)[C@@H]1CCN(c2ncnc3[nH]ccc23)C1 [Compound 104] | 50 to 100%
5 | CN(c1ccc(C(N)=O)cn1)[C@@H]1CCN(c2ncnc3[nH]ccc23)C1 [Compound 169, (R)-6-((1-(7H-pyrrolo[2,3-d]pyrimidin-4-yl)pyrrolidin-3-yl)(methyl)amino)nicotinamide] | 20 to 50%
6 | COc1ccc(S(=O)(=O)N(C)[C@@H]2CCN(c3ncnc4[nH]ccc34)C2)cc1 [Compound 13] | 20 to 50%
7 | CN(c1ccc(C(=O)NC(CO)c2ccccc2Cl)cc1F)[C@@H]1CCN(c2ncnc3[nH]ccc23)C1 (stereo partly shown) [Compound 207] | 50 to 100%
8 | CN(c1ccc(S(C)(=O)=O)cc1)[C@@H]1CCN(c2ncnc3[nH]ccc23)C1 [Compound 120, (R)—N-methyl-N-(4-(methylsulfonyl)phenyl)-1-(7H-pyrrolo[2,3-d]pyrimidin-4-yl)pyrrolidin-3-amine] | 20 to 50%
9 | CN(C(=O)Nc1cccc(C#N)c1)[C@@H]1CCN(c2ncnc3[nH]ccc23)C1 [Compound 16, (R)-1-(1-(7H-pyrrolo[2,3-d]pyrimidin-4-yl)pyrrolidin-3-yl)-3-(3-cyanophenyl)-1-methylurea] | 50 to 100%
10 | CN(C(=O)CC1CC1)[C@@H]1CCN(c2ncnc3[nH]ccc23)C1 [Compound 19] | 20 to 50%
11 | CN(c1ncc(C#N)cc1Br)[C@@H]1CCN(c2ncnc3[nH]ccc23)C1 [Compound 99] | 50 to 100%
12 | CN([C@@H]1CCN(c2ncnc3[nH]ccc23)C1)S(=O)(=O)c1c(F)cccc1F [Compound 43] | 20 to 50%
13 | CN([C@@H]1CCN(c2ncnc3[nH]ccc23)C1)S(=O)(=O)C1CCCCC1 [Compound 28] | 50 to 100%
14 | C[C@@H](O)CNS(=O)(=O)c1ccc(N(C)[C@@H]2CCN(c3ncnc4[nH]ccc34)C2)nc1 [Compound 244] | 50 to 100%
15 | COC[C@H](NC(=O)c1ccc(N(C)[C@@H]2CCN(c3ncnc4[nH]ccc34)C2)nc1)c1ccccc1 [Compound 209] | 50 to 100%
16 | CN(c1ccc(C(=O)Nc2cccnc2)cn1)[C@@H]1CCN(c2ncnc3[nH]ccc23)C1 [Compound 198] | 20 to 50%
17 | CN(C(=O)Nc1ccc(C#N)cc1)[C@@H]1CCN(c2ncnc3[nH]ccc23)C1 [Compound 17] | 50 to 100%
18 | CN(c1ncccc1C#N)[C@@H]1CCN(c2ncnc3[nH]ccc23)C1 [Compound 159] | 50 to 100%
19 | CN(c1ccc(C(=O)N[C@@H](CO)c2ccccc2)cc1F)[C@@H]1CCN(c2ncnc3[nH]ccc23)C1 [Compound 179] | 50 to 100%
20 | CN(c1ccc(S(=O)(=O)N2CCCC2)cn1)[C@@H]1CCN(c2ncnc3[nH]ccc23)C1 [Compound 247] | 50 to 100%
21 | CN(c1ccncn1)[C@@H]1CCN(c2ncnc3[nH]ccc23)C1 [Compound 154, (R)—N-(1-(7H-pyrrolo[2,3-d]pyrimidin-4-yl)pyrrolidin-3-yl)-N-methylpyrimidin-4-amine] | 50 to 100%

Row | Structure (SMILES) | inhibition at 0.3 µM
22 | CNS(=O)(=O)c1ccc(N(C)[C@@H]2CCN(c3ncnc4[nH]ccc34)C2)nc1 [Compound 239] | 50 to 100%
23 | C#CCN(c1cnc(C#N)cn1)[C@@H]1CCN(c2ncnc3[nH]ccc23)C1 [Compound 127] | 50 to 100%
24 | CN([C@@H]1CCN(c2ncnc3[nH]ccc23)C1)S(=O)(=O)C1CC1 [Compound 57] | 20 to 50%
25 | CN(c1ccc(NS(=O)(=O)Cc2ccccc2F)cn1)[C@@H]1CCN(c2ncnc3[nH]ccc23)C1 [Compound 219] | 50 to 100%
26 | CN(c1ccccn1)[C@@H]1CCN(c2ncnc3[nH]ccc23)C1 [Compound 156] | 50 to 100%
27 | N#Cc1ccc(N(CC2CC2)[C@@H]2CCN(c3ncnc4[nH]ccc34)C2)nc1 [Compound 124] | 50 to 100%
28 | CN(c1c(F)cc(C(=O)N[C@@H](CO)c2ccccc2)cc1F)[C@@H]1CCN(c2ncnc3[nH]ccc23)C1 [Compound 208] | 50 to 100%
29 | CN(c1ccc(NS(=O)(=O)c2cc(F)ccc2F)cn1)[C@@H]1CCN(c2ncnc3[nH]ccc23)C1 [Compound 213] | 20 to 50%
30 | CN(c1ccc(S(=O)(=O)N2CCNCC2)cn1)[C@@H]1CCN(c2ncnc3[nH]ccc23)C1 [Compound 251] | 50 to 100%
31 | COCC1CCCN1S(=O)(=O)c1ccc(N(C)[C@@H]2CCN(c3ncnc4[nH]ccc34)C2)nc1 (stereo partly shown) [Compound 249] | 50 to 100%
32 | CCCN(c1ccc(C#N)cn1)[C@@H]1CCN(c2ncnc3[nH]ccc23)C1 [Compound 98] | 50 to 100%
33 | CN(c1ccc(C#N)cc1-c1cccc(C#N)c1)[C@@H]1CCN(c2ncnc3[nH]ccc23)C1 [Compound 148] | 20 to 50%
34 | N#CCN(C1CCC1)[C@@H]1CCN(c2ncnc3[nH]ccc23)C1 [Compound 52] | 50 to 100%
35 | CN(c1ccc(C(=O)Nc2ccc(F)cc2)cn1)[C@@H]1CCN(c2ncnc3[nH]ccc23)C1 [Compound 191] | 50 to 100%
36 | CN(c1ccc(S(=O)(=O)Nc2ccc(F)cc2)cn1)[C@@H]1CCN(c2ncnc3[nH]ccc23)C1 [Compound 253] | 50 to 100%
37 | CN(C(=O)N1CCC[C@@H]1C(N)=O)[C@@H]1CCN(c2ncnc3[nH]ccc23)C1 [Compound 35] | 20 to 50%
38 | CN(c1ccc(NS(=O)(=O)Cc2ccc(Cl)cc2)cn1)[C@@H]1CCN(c2ncnc3[nH]ccc23)C1 [Compound 225] | 50 to 100%
39 | C[C@@H](NS(=O)(=O)c1ccc(N(C)[C@@H]2CCN(c3ncnc4[nH]ccc34)C2)nc1)c1ccc(F)cc1 [Compound 255] | 50 to 100%
40 | CN(c1ccc2[nH]c(=O)[nH]c2n1)[C@@H]1CCN(c2ncnc3[nH]ccc23)C1 [Compound 164, (R)-5-((1-(7H-pyrrolo[2,3-d]pyrimidin-4-yl)pyrrolidin-3-yl)(methyl)amino)-1H-imidazo[4,5-b]pyridin-2(3H)-one] | 50 to 100%
41 | COC(=O)c1ccc(N(C)[C@@H]2CCN(c3ncnc4[nH]ccc34)C2)nc1 [Compound 168] | 50 to 100%
42 | C#CCN(c1ccc(S(C)(=O)=O)cn1)[C@@H]1CCN(c2ncnc3[nH]ccc23)C1 [Compound 58] | 20 to 50%

Row | Structure (SMILES) | inhibition at 0.3 µM
43 | CN(c1ccc(NC(=O)C2CC2)cn1)[C@@H]1CCN(c2ncnc3[nH]ccc23)C1 [Compound 229] | 50 to 100%
44 | CN(c1ccc(S(=O)(=O)N2CCOCC2)cn1)[C@@H]1CCN(c2ncnc3[nH]ccc23)C1 [Compound 252] | 50 to 100%
45 | CN(c1ccc(C#N)c(Cl)n1)[C@@H]1CCN(c2ncnc3[nH]ccc23)C1 [Compound 90] | 50 to 100%
46 | N#CCN(C1CCCC1)[C@@H]1CCN(c2ncnc3[nH]ccc23)C1 [Compound 45] | 50 to 100%
47 | CN(C(=O)Nc1ccc(C(F)(F)F)cc1)[C@@H]1CCN(c2ncnc3[nH]ccc23)C1 [Compound 30] | 50 to 100%
48 | CCOc1cnc(N(C)[C@@H]2CCN(c3ncnc4[nH]ccc34)C2)cn1 [Compound 136] | 50 to 100%
49 | CN(c1ccc(C#N)cn1)[C@@H]1CCN(c2ccnc3[nH]ccc23)C1 [Compound 92] | 50 to 100%
50 | CN(c1ccc(NC(=O)c2cccc(F)c2)cn1)[C@@H]1CCN(c2ncnc3[nH]ccc23)C1 [Compound 226] | 50 to 100%
51 | Cc1ccc(N(C)[C@@H]2CCN(c3ncnc4[nH]ccc34)C2)nc1 [Compound 101] | 50 to 100%
52 | CN(c1ccc(C(F)(F)F)cn1)[C@@H]1CCN(c2ncnc3[nH]ccc23)C1 [Compound 123] | 50 to 100%
53 | CN(c1ccc(C#N)cc1Br)[C@@H]1CCN(c2ncnc3[nH]ccc23)C1 [Compound 115] | 50 to 100%
54 | CN(c1ccc2nn[nH]c2n1)[C@@H]1CCN(c2ncnc3[nH]ccc23)C1 [Compound 167, (R)—N-(1-(7H-pyrrolo[2,3-d]pyrimidin-4-yl)pyrrolidin-3-yl)-N-methyl-3H-[1,2,3]triazolo[4,5-b]pyridin-5-amine] | 50 to 100%
55 | CN(c1ncc(Br)cn1)[C@@H]1CCN(c2ncnc3[nH]ccc23)C1 [Compound 94] | 50 to 100%
56 | CN(c1ccc(S(=O)(=O)NC2c3ccccc3C[C@H]2O)cn1)[C@@H]1CCN(c2ncnc3[nH]ccc23)C1 (stereo partly shown) [Compound 232] | 20 to 50%
57 | CN(c1ccc(C#N)cc1N)[C@@H]1CCN(c2ncnc3[nH]ccc23)C1 [Compound 166, (R)-4-((1-(7H-pyrrolo[2,3-d]pyrimidin-4-yl)pyrrolidin-3-yl)(methyl)amino)-3-aminobenzonitrile] | 20 to 50%
58 | COCC(=O)Nc1ccc(N(C)[C@@H]2CCN(c3ncnc4[nH]ccc34)C2)nc1 [Compound 228] | 20 to 50%
59 | CN(c1cnc(NCCO)cn1)[C@@H]1CCN(c2ncnc3[nH]ccc23)C1 [Compound 135] | 20 to 50%
60 | CN(c1ccc(NS(=O)(=O)Cc2ccccc2Cl)cn1)[C@@H]1CCN(c2ncnc3[nH]ccc23)C1 [Compound 223] | 50 to 100%
61 | CN(C(=O)CCc1c(Cl)cccc1Cl)[C@@H]1CCN(c2ncnc3[nH]ccc23)C1 [Compound 21] | 50 to 100%
62 | CN(CCC#N)[C@@H]1CCN(c2ncnc3[nH]ccc23)C1 [Compound 64] | 50 to 100%

Same assay, conditions: read-out: inhibition percentage (IR %)

Row | Structure (SMILES) | inhibition at 0.3 µM
63 | CN(c1cc(Cl)c(C#N)cc1F)[C@@H]1CCN(c2ncnc3[nH]ccc23)C1 [Compound 110] | 20 to 50%
64 | CCS(=O)(=O)Nc1ccc(N(C)[C@@H]2CCN(c3ncnc4[nH]ccc34)C2)nc1 [Compound 210, (R)—N-6-((1(7H-pyrrolo[2,3-d]pyrimidin-4-yl)pyrrolidin-3-yl)(methyl)(amino)pyridin-3-yl)ethanesulfonamfide] | 50 to 100%
